Data as given in patent US7994209B2, “3-phenoxymethylpyrrolidine compounds” (Theravance, Inc., priority 2009, dated 2011).
Marks after values point to notes of the source that are not given here.

Assays:
SERT and NET = details: cited from earlier work
hNET [1] = molecular target: T1, hNET (Homo sapiens, UniProt P23975); experiment: fluorescence-based norepinephrine reuptake inhibition assay (Tsuruda et al. 2010; data indicated by an asterisk); assay type: cell-based; set-up: expressed in transfected cells; host or cells: HEK-293; details: norepinephrine reuptake inhibition, fluorescence-based assay (values with asterisk); for IC50: read-out: NET pIC50 (converted)
T1 sequence (P23975 whole entry): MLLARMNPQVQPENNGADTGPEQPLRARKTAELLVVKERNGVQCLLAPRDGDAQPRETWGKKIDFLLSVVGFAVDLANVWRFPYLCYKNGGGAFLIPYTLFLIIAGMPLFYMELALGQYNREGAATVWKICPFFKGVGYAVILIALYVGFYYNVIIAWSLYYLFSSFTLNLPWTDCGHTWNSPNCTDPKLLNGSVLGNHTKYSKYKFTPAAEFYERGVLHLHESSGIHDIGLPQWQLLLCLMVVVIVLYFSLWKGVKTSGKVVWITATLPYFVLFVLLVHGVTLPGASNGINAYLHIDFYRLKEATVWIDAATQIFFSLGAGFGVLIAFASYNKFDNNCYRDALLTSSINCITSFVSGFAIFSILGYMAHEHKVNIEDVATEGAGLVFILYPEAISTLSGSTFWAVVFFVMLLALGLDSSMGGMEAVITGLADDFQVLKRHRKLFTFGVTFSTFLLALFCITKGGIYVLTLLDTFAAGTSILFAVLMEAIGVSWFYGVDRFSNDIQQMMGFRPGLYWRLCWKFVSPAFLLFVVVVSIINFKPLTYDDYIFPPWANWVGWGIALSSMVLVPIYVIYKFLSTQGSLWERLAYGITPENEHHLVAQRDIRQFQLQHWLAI

hNET [2] = molecular target: T1, hNET; experiment: hNET membrane radioligand binding assay (3H-nisoxetine), Assay 1
hSERT [3] = molecular target: T2, hSERT (Homo sapiens, UniProt P31645); experiment: fluorescence-based serotonin reuptake inhibition assay (Tsuruda et al. 2010; data indicated by an asterisk); assay type: cell-based; set-up: expressed in transfected cells; host or cells: HEK-293; details: fluorescence-based assay (values with asterisk); for IC50: read-out: SERT pIC50 (converted)
T2 sequence (P31645 whole entry): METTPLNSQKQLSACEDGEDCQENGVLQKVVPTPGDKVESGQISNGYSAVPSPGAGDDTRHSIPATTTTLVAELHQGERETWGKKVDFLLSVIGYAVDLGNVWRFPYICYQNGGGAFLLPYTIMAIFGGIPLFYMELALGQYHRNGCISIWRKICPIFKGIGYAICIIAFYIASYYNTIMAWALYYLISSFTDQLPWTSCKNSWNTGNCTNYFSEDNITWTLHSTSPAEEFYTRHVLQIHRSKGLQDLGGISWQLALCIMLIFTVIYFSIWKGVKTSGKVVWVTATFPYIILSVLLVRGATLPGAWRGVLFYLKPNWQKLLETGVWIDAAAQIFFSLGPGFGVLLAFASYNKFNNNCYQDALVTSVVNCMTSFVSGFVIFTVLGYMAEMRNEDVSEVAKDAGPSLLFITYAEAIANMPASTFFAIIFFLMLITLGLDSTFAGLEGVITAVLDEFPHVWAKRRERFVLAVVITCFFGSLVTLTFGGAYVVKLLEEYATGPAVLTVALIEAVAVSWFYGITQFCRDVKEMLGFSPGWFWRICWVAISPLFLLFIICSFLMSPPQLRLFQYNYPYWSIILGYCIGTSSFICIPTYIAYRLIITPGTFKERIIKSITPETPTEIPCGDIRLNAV

hSERT [4] = molecular target: T2, hSERT; experiment: hSERT membrane radioligand binding assay (3H-citalopram), Assay 1; details: hSERT HEK-293 membranes, 1.0 nM 3H-citalopram, values given as lower bounds; for Ki: SERT pKi

IC50 (hNET [1]) | Ki (hNET [2]) | IC50 (hSERT [3]) | Ki (hSERT [4]) | Compound | further results
≤ 10 nM | ≤ 10 nM | ≤ 10 nM | ≤ 10 nM | Clc1ccc(O[C@@H](C2CC2)[C@H]2CCNC2)cc1Cl [Example 16-87, (S)-3-[(S)cyclopropyl-(3,4-dichlorophenoxy)methyl]pyrrolidine] | 
≤ 10 nM | ≤ 10 nM | ≤ 10 nM | ≤ 10 nM | Clc1ccc(O[C@H](C2CC2)[C@H]2CCNC2)cc1Cl [Example 16-88, (S)-3-[(R)cyclopropyl-(3,4-dichlorophenoxy)methyl]pyrrolidine] | 
≤ 10 nM | ≤ 10 nM | ≤ 10 nM | ≤ 10 nM | Cc1cc(O[C@@H](C2CC2)[C@H]2CCNC2)ccc1Cl [Example 16-94, (S)-3-[(S)-(4-Chloro-3-methylphenoxy)cyclopropylmethyl]pyrrolidine] | 
≤ 100 nM | ≤ 100 nM | ≤ 10 nM | ≤ 10 nM | Cc1cc(O[C@H](C2CC2)[C@H]2CCNC2)ccc1Cl [Example 16-95, (S)-3-[(R)-(4-Chloro-3-methylphenoxy)cyclopropylmethyl]pyrrolidine] | 
≤ 10 nM | ≤ 10 nM | ≤ 10 nM | ≤ 10 nM | c1ccc2c(O[C@@H](C3CC3)[C@H]3CCNC3)cccc2c1 [Example 22, (S)-3-[(S)-Cyclopropyl(naphthalen-1-yloxy)methyl]pyrrolidine] | 

The next lines start with the compound.

Compound | IC50 (hNET [1]) | Ki (hNET [2]) | IC50 (hSERT [3]) | Ki (hSERT [4]) | further results
CNCC[C@@H](Oc1ccccc1C)c1ccccc1 [Atomoxetine] |  |  |  |  | NET selective (SERT and NET; NET selectivity): 10 fold
COc1ccc(F)c(O[C@@H](C2CC2)[C@H]2CCNC2)c1Cl [Example 16-64, (S)-3-[(S)-(2-Chloro-6-fluoro-3-methoxyphenoxy)cyclopropylmethyl]pyrrolidine] | ≤ 10 nM | ≤ 10 nM | ≤ 10 nM | ≤ 10 nM | 
Fc1ccc(Cl)c(F)c1O[C@@H](C1CC1)[C@H]1CCNC1 [Example 16-66, (S)-3-[(S)-(3-Chloro-2,6-difluorophenoxy)cyclopropylmethyl]pyrrolidine] | ≤ 10 nM | ≤ 10 nM | ≤ 100 nM | ≤ 10 nM | 
Fc1ccc(Cl)c(F)c1O[C@H](C1CC1)[C@H]1CCNC1 [Example 16-67, (S)-3-[(R)-(3-Chloro-2,6-difluorophenoxy)cyclopropylmethyl]pyrrolidine] | ≤ 10 nM | ≤ 10 nM | ≤ 100 nM | ≤ 10 nM | 
Cc1cc(O[C@@H](C2CC2)[C@H]2CCNC2)c(Cl)cc1Cl [Example 16-72, (S)-3-[(S)cyclopropyl-(2,4-dichloro-5-methylphenoxy)methyl]pyrrolidine] | ≤ 100 nM | ≤ 100 nM | ≤ 10 nM | ≤ 10 nM | 
COc1cc(Cl)c(F)cc1O[C@@H](C1CC1)[C@H]1CCNC1 [Example 16-74, (S)-3-[(S)-(4-Chloro-5-fluoro-2-methoxyphenoxy)cyclopropylmethyl]pyrrolidine] | ≤ 10 nM | ≤ 10 nM | ≤ 10 nM | ≤ 10 nM | 
Fc1cc(Cl)cc(F)c1O[C@H](C1CC1)[C@H]1CCNC1 [Example 16-80, (S)-3-[(R)-(4-Chloro-2,6-difluorophenoxy)cyclopropylmethyl]pyrrolidine] | ≤ 10 nM | ≤ 10 nM | ≤ 10 nM | ≤ 10 nM | 
Clc1cccc(O[C@@H](C2CC2)[C@H]2CCNC2)c1 [Example 16-84, (S)-3-[(S)-(3-Chlorophenoxy)cyclopropylmethyl]pyrrolidine] | ≤ 10 nM | ≤ 10 nM | ≤ 100 nM | ≤ 10 nM | 
Clc1cccc(O[C@H](C2CC2)[C@H]2CCNC2)c1 [Example 16-85, (S)-3-[(R)-(3-Chlorophenoxy)cyclopropylmethyl]pyrrolidine] | ≤ 10 nM | ≤ 10 nM | ≤ 100 nM | ≤ 10 nM | 
CNCC[C@H](Oc1cccc2ccccc12)c1cccs1 [duloxetine] |  |  |  |  | selectivity (measured as pKi) for SERT over NET (SERT and NET): 10 fold; affinity for SERT relative to NET (SERT and NET; Vaishnavi et al. (2004)): higher affinity for SERT relative to NET
CCN(CC)C(=O)C1(c2ccccc2)CC1CN (stereo not drawn) [milnacipran] |  |  |  |  | selectivity (measured as pKi) for SERT over NET (SERT and NET): 2.5 fold
(S)-3-[(R)-Cyclopropyl-(2-methyl-3-vinylphenoxy)methyl]pyrrolidine [Example 23-1] |  |  |  |  | NET pIC50 (hNET [1]): ≧8.0*; NET pKi (hNET [2]; hNET HEK-293 membranes, 1.0 nM 3H-nisoxetine, values given as lower bounds): ≧8.0; SERT pIC50 (hSERT [3]): ≧8.0*; SERT pKi (hSERT [4]): ≧8.0
